Here are results for one molecule from US8063103B2, “Polymorphs of acyl sulfonamides” (Roche Palo Alto LLC, priority 2008, dated 2011).

The procedure of this series:
Amorphous state of Ib can be prepared by dissolving Form VIII in 82% t-butanol/18% water at a drug concentration of ˜6 mg/mL. This solution was lyophilized overnight (˜18 hours) to form the amorphous material.

Structures can show the parent of a compound that is named as a salt. Where two headings read alike, the source gives them in different places.

Regarding `CCC(=O)NS(=O)(=O)c1ccc(NC(=O)Cc2ccc(Br)c(Oc3cc(Cl)cc(C#N)c3)c2F)c(Cl)c1` [amorphous material, 2-[4-Bromo-3-(3-chloro-5-cyano-phenoxy)-2-fluoro-phenyl]-N-(2-chloro-4-propionylsulfamoyl-phenyl)-acetamide, sodium salt], the “stability of amorphous material on storage” value is given as “stable at 25C/60 RH for at least one week” (25C/60 RH, at least one week) and “not at 40C/75 RH” (40C/75 RH).
